Measured values as given in patent publication US11053234B2 (GlaxoSmithKline Intellectual Property Development Limited, priority 2016, dated 2021).

Molecular target: T1, haematopoietic prostaglandin D synthase (H-PGDS) (Homo sapiens, UniProt O60760)
T1 construct: Full length human H-PGDS cDNA (Invitrogen Ultimate ORF 10H13026) was amplified by PCR; 6-His (N); TEV protease cleavage site (N); made in house; host or cells: E. coli BL21 (DE3*), vector pET22b+
Assay: H-PGDS RapidFire high throughput mass spectrometry assay (conversion of PGH2 to PGD2)
Type: biochemical
Settings: 10 nM H-PGDS, PGH2 formed in situ by COX-2 from arachidonic acid; read-out: Potency Range (mean pIC50) (converted)
How it was run: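 PGH2 substrate generated in situ by COX-2 (full-length human, FLAG-tagged, Sf9-expressed) from arachidonic acid at ˜10 μM, then converted by full-length human His-tagged H-PGDS (E. coli-expressed). RapidFire SPE–triple quadrupole MS measured PGD2 against PGF2α as substrate surrogate to give percent conversion.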

T1 sequence (O60760 whole entry): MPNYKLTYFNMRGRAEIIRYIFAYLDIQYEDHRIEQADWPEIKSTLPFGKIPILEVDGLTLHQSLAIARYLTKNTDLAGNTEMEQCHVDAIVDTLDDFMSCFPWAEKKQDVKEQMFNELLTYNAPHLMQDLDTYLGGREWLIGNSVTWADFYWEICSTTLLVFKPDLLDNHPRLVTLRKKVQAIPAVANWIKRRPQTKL

`CC(=O)N1CCCC(NC(=O)N2CC(Oc3cccc4scnc34)C2)C1` (racemic) [Example 92, Racemic N-(1-Acetylpiperidin-3-yl)-3-(benzo[d]thiazol-4-yloxy)azetidine-1-carboxamide] and `CS(=O)(=O)N1CCC(NC(=O)N2CC(Oc3cccc4scnc34)C2)CC1` [Example 97, 3-(Benzo[d]thiazol-4-yloxy)-N-(1-(methylsulfonyl)piperidin-4-yl)azetidine-1-carboxamide] fall in the same range of IC50: 0.1 to 1 µM for the first, 0.1 to 1 µM for the second.

Compared with `CC(C)(O)[C@H]1CC[C@H](NC(=O)[C@H]2C[C@H](Nc3cccc4cccnc34)C2)CC1` [Example 222, (trans)-N-((trans)-4-(2-Hydroxypropan-2-yl)cyclohexyl)-3-(quinolin-8-ylamino)cyclobutanecarboxamide], `CC(C)(O)[C@H]1CC[C@H](NC(=O)[C@H]2C[C@H](Oc3cccc4scnc34)C2)CC1` [Example 109, (trans)-3-(Benzo[d]thiazol-4-yloxy)-N-((trans)-4-(2-hydroxypropan-2-yl)cyclohexyl)cyclobutanecarboxamide] is lower in IC50: 0.1 to 1 µM for the first, 0.01 to 0.0794 µM for the second.

`CC(O)(CO[C@H]1CC[C@H](NC(=O)N2CC(Oc3cccc4scnc34)C2)CC1)C1CC1` (mixture of isomers) [Example 100, Racemic 3-(Benzo[d]thiazol-4-yloxy)-N-((trans)-4-(2-cyclopropyl-2-hydroxypropoxy)cyclohexyl)azetidine-1-carboxamide] and `CC(C)(O)[C@H]1CC[C@H](NC(=O)N2CC(Oc3cccc4ccoc34)C2)CC1` [Example 260, 3-(Benzofuran-7-yloxy)-N-((trans)-4-(2-hydroxypropan-2-yl)cyclohexyl)azetidine-1-carboxamide] fall in the same range of IC50: 0.01 to 0.0794 µM for the first, 0.01 to 0.0794 µM for the second.

Compared with `O=C(Nc1cccc(N2CCOCC2)c1)N1CC(Oc2cccc3scnc23)C1` [Example 309, 3-(Benzo[d]thiazol-4-yloxy)-N-(3-morpholinophenyl)azetidine-1-carboxamide], `O=C(NC1CN(c2ccnc(Cl)n2)C1)N1CC(Oc2cccc3scnc23)C1` [Example 60, 3-(Benzo[d]thiazol-4-yloxy)-N-(1-(2-chloropyrimidin-4-yl)azetidin-3-yl)azetidine-1-carboxamide] is lower in IC50: 0.1 to 1 µM for the first, 0.01 to 0.0794 µM for the second.

First: COc1ccc(F)cc1O[C@H]1C[C@H](NC(=O)[C@H]2CC[C@H](C(C)(C)O)CC2)C1 [Example 162, (trans)-N-((trans)-3-(5-Fluoro-2-methoxyphenoxy)cyclobutyl)-4-(2-hydroxypropan-2-yl)cyclohexanecarboxamide]
Second: COc1ccc(F)cc1O[C@H]1C[C@H](C(=O)NC2CC3(C2)CC(C(C)(C)O)C3)C1 (mixture of isomers) [Example 160, Racemic (trans)-3-(5-Fluoro-2-methoxyphenoxy)-N-(6-(2-hydroxypropan-2-yl)spiro[3.3]heptan-2-yl)cyclobutanecarboxamide]
The IC50 of the first is higher: 0.1 to 1 µM for the first, less than 0.01 µM for the second.

Compared with `O=C(Nc1ncco1)[C@H]1C[C@H](Oc2cccc3cccnc23)C1` [Example 208, (trans)-N-(Oxazol-2-yl)-3-(quinolin-8-yloxy)cyclobutanecarboxamide], `CC(C)(O)Cc1cnc(NC(=O)[C@H]2C[C@H](Oc3cccc4cccnc34)C2)s1` [Example 213, (trans)-N-(5-(2-Hydroxy-2-methylpropyl)thiazol-2-yl)-3-(quinolin-8-yloxy)cyclobutanecarboxamide] is lower in IC50: 0.1 to 1 µM for the first, 0.01 to 0.0794 µM for the second.

Compared with `CC(=O)c1csc(NC(=O)[C@H]2C[C@H](Oc3ccccc3OC(F)F)C2)n1` [Example 279], `CC(=O)c1csc(NC(=O)[C@H]2C[C@H](Oc3cc(F)ccc3OC(F)F)C2)n1` [Example 35, (trans)-N-(4-Acetylthiazol-2-yl)-3-(2-(difluoromethoxy)-5-fluorophenoxy)cyclobutanecarboxamide] is lower in IC50: 0.01 to 0.0794 µM for the first, less than 0.01 µM for the second.

`CCOC(=O)Cc1nnc(NC(=O)[C@H]2C[C@H](Oc3cccc4ccoc34)C2)s1` [Example 263, Ethyl 2-(5-((trans)-3-(benzofuran-7-yloxy)cyclobutanecarboxamido)-1,3,4-thiadiazol-2-yl)acetate] and `CC(=O)c1csc(NC(=O)[C@H]2C[C@H](Oc3cccc4scnc34)C2)n1` [Example 68, (trans)-N-(4-Acetylthiazol-2-yl)-3-(benzo[d]thiazol-4-yloxy)cyclobutanecarboxamide] fall in the same range of IC50: 0.01 to 0.0794 µM for the first, 0.01 to 0.0794 µM for the second.

First: O=C(c1csc(NC(=O)[C@H]2C[C@H](Oc3cc(F)ccc3OC(F)F)C2)n1)C1CC1 [Example 32, (trans)-N-(4-(Cyclopropanecarbonyl)thiazol-2-yl)-3-(2-(difluoromethoxy)-5-fluorophenoxy)cyclobutanecarboxamide]
Second: O=C(Nc1nc(COC(=O)[C@H]2C[C@H](Oc3cc(F)ccc3OC(F)F)C2)cs1)[C@H]1C[C@H](Oc2cc(F)ccc2OC(F)F)C1 [Example 13, (trans)-(2-((trans)-3-(2-(Difluoromethoxy)-5-fluorophenoxy)cyclobutanecarboxamido)thiazol-4-yl)methyl 3-(2-(difluoromethoxy)-5-fluorophenoxy)cyclobutanecarboxylate]
The IC50 of the first is lower: less than 0.01 µM for the first, 0.1 to 1 µM for the second.

`CC(C)(O)[C@H]1CC[C@H](NC(=O)[C@H]2C[C@H](Oc3cc(F)ccc3F)C2)CC1` [Example 229, (trans)-3-(2,5-Difluorophenoxy)-N-((trans)-4-(2-hydroxypropan-2-yl)cyclohexyl)cyclobutanecarboxamide] and `CC(C)(O)[C@H]1CC[C@H](NC(=O)[C@H]2C[C@H](Oc3cccc(F)c3)C2)CC1` [Example 289, (trans)-3-(3-Fluorophenoxy)-N-((trans)-4-(2-hydroxypropan-2-yl)cyclohexyl)cyclobutanecarboxamide] fall in the same range of IC50: 0.1 to 1 µM for the first, 0.1 to 1 µM for the second.

`CC(O)[C@H]1CC[C@H](NC(=O)[C@H]2C[C@H](Oc3cc(F)ccc3OC(F)F)C2)CC1` (mixture of isomers) [Example 26] and `COc1ccc(F)cc1O[C@H]1C[C@H](C(=O)NC2CCN(c3cc(C#N)ccn3)C2)C1` (mixture of isomers) [Example 145, Racemic (trans)-N-(1-(4-Cyanopyridin-2-yl)pyrrolidin-3-yl)-3-(5-fluoro-2-methoxyphenoxy)cyclobutanecarboxamide] fall in the same range of IC50: 0.01 to 0.0794 µM for the first, 0.01 to 0.0794 µM for the second.

`COC(=O)C12CCC(NC(=O)[C@H]3C[C@H](Oc4cccc5scnc45)C3)(CC1)CC2` [Example 326, Methyl 4-((trans)-3-(benzo[d]thiazol-4-yloxy)cyclobutane-1-carboxamido)bicyclo[2.2.2]octane-1-carboxylate] and `CC(C)(O)[C@@H]1CC[C@@H](NC(=O)[C@H]2C[C@H](Oc3cccc4scnc34)C2)CO1` (racemic) [Example 51, Racemic (trans)-3-(Benzo[d]thiazol-4-yloxy)-N-((trans)-6-(2-hydroxypropan-2-yl)tetrahydro-2H-pyran-3-yl)cyclobutanecarboxamide] fall in the same range of IC50: 0.01 to 0.0794 µM for the first, 0.01 to 0.0794 µM for the second.

`COc1ccc(F)cc1O[C@H]1C[C@H](C(=O)NC2CC(=O)Nc3ccccc32)C1` (mixture of isomers) [Example 153, Racemic (trans)-3-(5-Fluoro-2-methoxyphenoxy)-N-(2-oxo-1,2,3,4-tetrahydroquinolin-4-yl)cyclobutanecarboxamide] and `O=C(NC1CN(c2ccccn2)C1)[C@H]1C[C@H](Oc2cc(F)cc3scnc23)C1` [Example 137, (trans)-3-((6-Fluorobenzo[d]thiazol-4-yl)oxy)-N-(1-(pyridin-2-yl)azetidin-3-yl)cyclobutanecarboxamide] fall in the same range of IC50: 0.01 to 0.0794 µM for the first, 0.01 to 0.0794 µM for the second.

`O=C(NC1CN(c2ncc(F)cn2)C1)N1CC(Oc2cccc3scnc23)C1` [Example 61, 3-(Benzo[d]thiazol-4-yloxy)-N-(1-(5-fluoropyrimidin-2-yl)azetidin-3-yl)azetidine-1-carboxamide] and `O=C(NC1CN(c2ncccn2)C1)N1CC(Oc2cc(F)cc3scnc23)C1` [Example 129, 3-((6-Fluorobenzo[d]thiazol-4-yl)oxy)-N-(1-(pyrimidin-2-yl)azetidin-3-yl)azetidine-1-carboxamide] fall in the same range of IC50: 0.01 to 0.0794 µM for the first, 0.01 to 0.0794 µM for the second.

First: O=C(NC1CCN(CC(F)(F)F)CC1)[C@H]1C[C@H](Oc2cccc3cccnc23)C1 [Example 224, (trans)-3-(Quinolin-8-yloxy)-N-(1-(2,2,2-trifluoroethyl)piperidin-4-yl)cyclobutanecarboxamide]
Second: O=C(Nc1nc(C2CC2)cs1)[C@H]1C[C@H](Oc2cccc3cccnc23)C1 [Example 207, (trans)-N-(4-Cyclopropylthiazol-2-yl)-3-(quinolin-8-yloxy)cyclobutanecarboxamide]
The IC50 of the first is higher: 0.01 to 0.0794 µM for the first, less than 0.01 µM for the second.

Compared with `O=C(NC1CN(c2ccnc(Cl)n2)C1)[C@H]1C[C@H](Oc2cccc3scnc23)C1` [Example 69, (trans)-3-(Benzo[d]thiazol-4-yloxy)-N-(1-(2-chloropyrimidin-4-yl)azetidin-3-yl)cyclobutanecarboxamide], `CN(C)c1nccc(N2CC(NC(=O)[C@H]3C[C@H](Oc4cccc5scnc45)C3)C2)n1` [Example 76, (trans)-3-(Benzo[d]thiazol-4-yloxy)-N-(1-(2-(dimethylamino)pyrimidin-4-yl)azetidin-3-yl)cyclobutanecarboxamide] is higher in IC50: 0.01 to 0.0794 µM for the first, 0.1 to 1 µM for the second.

First: CC(C)(C)c1csc(NC(=O)[C@H]2C[C@H](Oc3cccc4cccnc34)C2)n1 [Example 211, (trans)-N-(4-(tert-Butyl)thiazol-2-yl)-3-(quinolin-8-yloxy)cyclobutanecarboxamide]
Second: O=C(NCc1cccs1)[C@H]1C[C@H](Oc2cccc3scnc23)C1 [Example 250]
The IC50 of the first is lower: 0.01 to 0.0794 µM for the first, 0.1 to 1 µM for the second.

`O=C(NC1CN(c2ccc(F)cn2)C1)[C@H]1C[C@H](Oc2cc(F)cc3scnc23)C1` [Example 120, (trans)-3-((6-Fluorobenzo[d]thiazol-4-yl)oxy)-N-(1-(5-fluoropyridin-2-yl)azetidin-3-yl)cyclobutanecarboxamide] and `O=C(NC1CCN(c2ncc(F)cn2)CC1)[C@H]1C[C@H](Oc2cccc3scnc23)C1` [Example 41, (trans)-3-(Benzo[d]thiazol-4-yloxy)-N-(1-(5-fluoropyrimidin-2-yl)piperidin-4-yl)cyclobutanecarboxamide] fall in the same range of IC50: 0.01 to 0.0794 µM for the first, 0.01 to 0.0794 µM for the second.
